Columns and labels:
NCIES0808 cells = test: Real-time PCR, Human Diabetes Arrays; type: cell-based
Protocol: NCIES0808 cells were plated in T25 flasks at a density of 2×10^6 cells per flask in media or media containing 50 uM/100 uM Q10. All treatment groups were run in triplicate. Cells were harvested at 0, 3, 6, 24 or 48 hours. Pictures were taken to examine cell morphology before harvesting. To harvest cells, media was removed but saved to be able to collect floating apoptotic cells. Cells were trypsinized with 1 ml of trypsin-EDTA and the enzyme action was stopped by addition of 4 ml complete media. Trypsinized cells were added to the appropriate tube containing the media with dead cells. Cells were centrifuged at 1200 rpm for 5 minutes and media was aspirated leaving behind the cell pellet for RNA extraction. RNA isolation from cell pellets was carried out with the RNeasy kit (Qiagen, Valencia Calif.) according to the manufacturer's instructions. RNA samples were eluted from spin columns in water; absorbance was measured at 260 nm, 230 nm and 280 nm. The purity of RNA was evaluated by the 260/230 and 280/230 ratios. The concentration of RNA in all of the samples was calculated from absorbance values at […]. First strand cDNA was synthesized from 0.5 ug of all RNA samples using instructions provided with the First strand kit (SABiosciences, Frederick, Md.). The synthesized first strand from a sample was dispensed equally in a PCR array plate containing primers within a pathway (Angiogenesis, Diabetes and Mitochondria) (SABiosciences Corporation, Frederick, Md.). The arrays were amplified with real time PCR using the SYBR green detection methods using manufacturer approved protocols. The ct values from each of the samples were normalized to three housekeeping genes and fold regulation of Q10 treated groups was compared to time matched controls from cells grown in regular media was calculated.
The experiments described in this example were performed to test the overall hypothesis that Q10 would have an impact on expression of multiple genes in Ewing's sarcoma cells. The mRNA from NCIES0808 cells treated with 50 μM or 100 μM Q10 for various times was evaluated by RT-PCR against a panel of target proteins involved in human diabetes, human angiogenesis or human mitochondrial pathways.
Ct values obtained from a real time thermocycler were loaded onto the analysis tool on the SABiosciences website for calculation of fold regulation compared to cells with media. The genes that are included in the tables below are those that show a p value of close to 0.05.

[1] = system: mitochondrial preparation of NICES0808 sample; test: 2-D gel analysis of mitochondrial preparation; type: cell-based, human; conditions: direction not given
Protocol: NCIES0808 cells were treated with Q10 separately in larger volumes for isolation of sufficient mitochondria for proteomic analysis. Cells were treated with media, 50 uM Q10 or 100 uM Q10 for 0, 3, 6, 24 and 48 hours in T175 flasks. Two flasks were grown for each condition and cells from the two were pooled during harvesting. After the required treatment time, cells were trypsinized and washed twice in ice cold TBS. Pelleted cells were snap frozen in liquid nitrogen and frozen at −80° C. until mitochondria were isolated. Mitochondria were isolated using manufacturers instructions available with the MitoProfile Mitosciences Isolation Kit for Cultured Cells (Mitosciences Inc, Eugene, Oreg.).
Before isoelectric focusing (IEF), samples were solubilized in 40 mM Tris, 7 M urea, 2 M thiourea, and 1% C7 zwitterionic detergent, reduced with tributylphosphine, and alkylated with 10 mM acrylamide for 90 min at room temperature. After the sample was run through a 10-kDa cutoff Amicon Ultra device with at least 3 volumes of the resuspension buffer, consisting of 7 M urea, 2 M thiourea, and 2% CHAPS to reduce the conductivity of the sample. One hundred micrograms of protein were subjected to IEF on 11-cm pH 3 to 10, pH 4 to 7 or pH 6 to 11 immobilized pH gradient strips (GE, Amersham, USA) to 100,000 volts hour. After IEF, immobilized pH gradient strips were equilibrated in 6 M urea, 2% SDS, 50 mM Tris-acetate buffer, pH 7.0, and 0.01% bromphenol blue and subjected to SDS-polyacrylamide gel electrophoresis on 8 to 16% Tris-HCl Precast Gel, 1 mm (Bio-Rad, USA). The gels were run in duplicate. They were fixed, stained in SYPRO Ruby, 80 mL/gel (Invitrogen, USA) and imaged on Fuji FLA-5100 laser scanner.
A mitochondrial preparation of NICES0808 sample was also analyzed for proteins and below, in Table 8, is the list of proteins the amount of which was modulated following treatment with CoQ10.

cancer = conditions: Mazzio 2006; cited from earlier work

Coenzyme Q10 [CoQ10]
Pattern of regulation, FOXP3 mRNA (NCIES0808 cells; 6 hours, 50 uM Q10): Upregulation at 6 hours with 50 uM and 100 uM Q10.
Pattern of regulation, FOXP3 mRNA (NCIES0808 cells; 6 hours, 100 uM Q10): Upregulation at 6 hours with 50 uM and 100 uM Q10.
Pattern of regulation, GCGR mRNA (NCIES0808 cells; 6 hours, 100 uM Q10): Upregulation at 6 hours with 100 uM Q10.
Pattern of regulation, GPD1 mRNA (NCIES0808 cells; 6 hours, 100 uM Q10): Upregulation at 6 hours with 100 uM Q10.
Pattern of regulation, INPPL1 mRNA (NCIES0808 cells; 6 hours, 100 uM Q10): Upregulation at 6 hours with 100 uM Q10.
Pattern of regulation, IRS2 mRNA (NCIES0808 cells; 6 hours, 100 uM Q10): Upregulation at 6 hours with 100 uM Q10.
Pattern of regulation, ADRB mRNA (NCIES0808 cells; 24 hours, 100 uM Q10): Upregulation at 24 hours with 100 uM Q10.
Pattern of regulation, DUSP4 mRNA (NCIES0808 cells; 24 hours, 100 uM Q10): Upregulation at 24 hours with 100 uM Q10.
Pattern of regulation, FOX C2 mRNA (NCIES0808 cells; 24 hours, 100 uM Q10): Upregulation at 24 hours with 100 uM Q10
Pattern of regulation, HMOX1 mRNA (NCIES0808 cells; 24 hours, 100 uM Q10): Upregulation at 24 and 48 hours with 100 uM Q10.
Pattern of regulation, VEGFA mRNA (NCIES0808 cells; 24 hours, 100 uM Q10): Upregulation at 24 hours with 100 uM Q10 and 48 hours
Pattern of regulation, VEGFA mRNA (NCIES0808 cells; 48 hours, 50 uM Q10): Upregulation at 24 hours with 100 uM Q10 and 48 hours
Pattern of regulation, CEACAM1 mRNA (NCIES0808 cells; 48 hours, 100 uM Q10): Upregulation at 48 hours with 100 uM Q10.
Pattern of regulation, HMOX1 mRNA (NCIES0808 cells; 48 hours, 100 uM Q10): Upregulation at 24 and 48 hours with 100 uM Q10.
Pattern of regulation, IL4R mRNA (NCIES0808 cells; 48 hours, 100 uM Q10): Upregulation at 48 hours with 100 uM Q10.
Proteins Modulated in NCIES0808 cells treated with CoQ10 (value = protein) ([1]; gel spot 37): eukaryotic translation elongation factor 1 beta 2
Proteins Modulated in NCIES0808 cells treated with CoQ10 (value = protein) ([1]; gel spot 108): retinoblastoma binding protein 4 isoform A
Proteins Modulated in NCIES0808 cells treated with CoQ10 (value = protein) ([1]; gel spot 172): cytoplasmic dynein IC-2
Proteins Modulated in NCIES0808 cells treated with CoQ10 (value = protein) ([1]; gel spot 227): chaperonin containing TCP1, subunit 3
Proteins Modulated in NCIES0808 cells treated with CoQ10 (value = protein) ([1]; gel spot 1000): TAR DNA binding protein
Lethality against cancer (cancer): did not find CoQ10 to be as lethal as expected

— patent publication US20130266557A1, “METHODS FOR TREATMENT OF A SARCOMA USING AN EPIMETABOLIC SHIFTER (COENZYME Q10)” (priority 2009, published 2013)
